Key:
Type in all cases: in vivo
[1] = system: ragweed (common ragweed, Ambrosia elatior); assay: Test C preemergence; settings: Ambrosia artemisiifolia, pre-emergence, 336 h, scale 0 to 100, read-out: Plant response rating, Ragweed
How it was run: (§1)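 Seeded loam-sand soil (preemergence) or young potted plants of 2-18 cm (postemergence) received test chemical formulated with surfactant in a non-phytotoxic solvent. Pots were kept in the greenhouse for 13-15 days before a visual 0-100 control rating relative to controls.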

[2] = system: galium (catchweed bedstraw, Galium aparine); assay: Test C preemergence; settings: Galium, pre-emergence, 336 h, scale 0 to 100, read-out: Plant response rating, Galium
How it was run: as §1

[3] = system: ducksalad (Heteranthera limosa); assay: Test B flooded paddy; settings: Heteranthera limosa, 336 h; 250 g ai/ha, Flood, 13 to 15 days, scale 0 (no effect) to 100 (complete control); read-out: Plant response rating, Ducksalad
How it was run: (§2)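 Visual injury ratings against untreated controls, taken 13 to 15 days after compound was added to paddy water standing 3 cm above the soil.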

[4] = system: sedge, umbrella (small-flower umbrella sedge, Cyperus difformis); assay: Test B flooded paddy; settings: Cyperus difformis, 336 h; 250 g ai/ha, Flood, 13 to 15 days, scale 0 (no effect) to 100 (complete control); read-out: Plant response rating, Sedge, Umbrella
How it was run: as §2

rice (Oryza sativa) = assay: Test B flooded paddy; settings: Oryza sativa, 336 h; 250 g ai/ha, Flood, 13 to 15 days, scale 0 (no effect) to 100 (complete control); read-out: Plant response rating, Rice
How it was run: as §2

[5] = system: barnyardgrass (Echinochloa crus-galli); assay: Test B flooded paddy; settings: Echinochloa crus-galli, 336 h; 250 g ai/ha, Flood, 13 to 15 days, scale 0 (no effect) to 100 (complete control); read-out: Plant response rating, Barnyardgrass
How it was run: as §2

[6] = system: ragweed (common ragweed, Ambrosia elatior); assay: Test A preemergence; settings: Ambrosia artemisiifolia, pre-emergence, 240 h, 0 to 100 scale (0 no effect, 100 complete control), read-out: Ragweed plant response rating
How it was run: (§3)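 Visual injury scored 0–100 (100 = complete control) against untreated controls about 10 days after treatment in a greenhouse. Test chemicals, formulated with surfactant in non-phytotoxic solvent, were sprayed on soil preemergence or on 2-10 cm, one- to two-leaf plants postemergence.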

[7] = system: giant foxtail (Setaria faberii); assay: Test A preemergence; settings: Setaria faberi, pre-emergence, 240 h, 0 to 100 scale (0 no effect, 100 complete control), read-out: Foxtail, Giant plant response rating
How it was run: as §3

[8] = system: Italian ryegrass (Lolium multiflorum); assay: Test A preemergence; settings: Lolium multiflorum, pre-emergence, 240 h, 0 to 100 scale (0 no effect, 100 complete control), read-out: Ryegrass, Italian plant response rating
How it was run: as §3

[9] = system: barnyardgrass (Echinochloa crus-galli); assay: Test A preemergence; settings: Echinochloa crus-galli, pre-emergence, 240 h, 0 to 100 scale (0 no effect, 100 complete control), read-out: Barnyardgrass plant response rating
How it was run: as §3

[10] = system: pigweed (Amaranthus retroflexus); assay: Test A preemergence; settings: Amaranthus retroflexus, pre-emergence, 240 h, 0 to 100 scale (0 no effect, 100 complete control), read-out: Pigweed plant response rating
How it was run: as §3

kochia (Kochia scoparia) [11] = assay: Test A preemergence; settings: Bassia scoparia, pre-emergence, 240 h, 0 to 100 scale (0 no effect, 100 complete control), read-out: Kochia plant response rating
How it was run: as §3

[12] = system: wheat (Triticum aestivum); assay: Test A postemergence; settings: Triticum aestivum, post-emergence, 240 h, 0 to 100 scale, read-out: Plant response rating, Wheat
How it was run: as §3

corn (Zea mays) = assay: Test A postemergence; settings: Zea mays, post-emergence, 240 h, 0 to 100 scale
How it was run: as §3

[13] = system: ragweed (common ragweed, Ambrosia elatior); assay: Test A postemergence; settings: Ambrosia artemisiifolia, post-emergence, 240 h, 0 to 100 scale, read-out: Plant response rating, Ragweed
How it was run: as §3

[14] = system: giant foxtail (Setaria faberii); assay: Test A postemergence; settings: Setaria faberi, post-emergence, 240 h, 0 to 100 scale, read-out: Plant response rating, Foxtail, Giant
How it was run: as §3

[15] = system: Italian ryegrass (Lolium multiflorum); assay: Test A postemergence; settings: Lolium multiflorum, post-emergence, 240 h, 0 to 100 scale, read-out: Plant response rating, Ryegrass, Italian
How it was run: as §3

[16] = system: barnyardgrass (Echinochloa crus-galli); assay: Test A postemergence; settings: Echinochloa crus-galli, post-emergence, 240 h, 0 to 100 scale, read-out: Plant response rating, Barnyardgrass
How it was run: as §3

[17] = system: galium (catchweed bedstraw, Galium aparine); assay: Test A postemergence; settings: Galium, post-emergence, 240 h, 0 to 100 scale, read-out: Plant response rating, Galium
How it was run: as §3

[18] = system: pigweed (Amaranthus retroflexus); assay: Test A postemergence; settings: Amaranthus retroflexus, post-emergence, 240 h, 0 to 100 scale, read-out: Plant response rating, Pigweed
How it was run: as §3

[19] = system: blackgrass (Alopecurus myosuroides); assay: Test A postemergence; settings: Alopecurus myosuroides, post-emergence, 240 h, 0 to 100 scale, read-out: Plant response rating, Blackgrass
How it was run: as §3

kochia (Kochia scoparia) [20] = assay: Test A postemergence; settings: Bassia scoparia, post-emergence, 240 h, 0 to 100 scale, read-out: Plant response rating, Kochia
How it was run: as §3

Question: For `N#Cc1cccc(Oc2ncc(C(F)(F)F)cn2)c1Oc1ncc(Cl)cn1` [Compound 39, 2-[(5-chloro-2-pyrimidinyl)oxy]-3-[[5-(trifluoromethyl)-2-pyrimidinyl]oxy]-benzonitrile], which pest or weed control at 31 g/ha ([1]; 31 g ai/ha, preemergence) is on record?
Answer: The pest or weed control at 31 g/ha was 40%.

Question: What about the pest or weed control at 62 g/ha ([1]; 62 g ai/ha, preemergence) of the same molecule?
Answer: Its pest or weed control at 62 g/ha is 65%.

Question: And the pest or weed control at 125 g/ha ([1]; 125 g ai/ha, preemergence)?
Answer: The pest or weed control at 125 g/ha was 85%.

Question: And the pest or weed control at 16 g/ha ([1]; Preemergence, 16 g ai/ha)?
Answer: Its pest or weed control at 16 g/ha is 15%.

Question: And the pest or weed control at 31 g/ha ([2]; 31 g ai/ha, preemergence)?
Answer: The pest or weed control at 31 g/ha was 90%.

Question: And the pest or weed control at 62 g/ha ([2]; 62 g ai/ha, preemergence)?
Answer: The pest or weed control at 62 g/ha was 85%.

Question: What about the pest or weed control at 125 g/ha ([2]; 125 g ai/ha, preemergence) of the same molecule?
Answer: The pest or weed control at 125 g/ha was 100%.

Question: What about the pest or weed control at 16 g/ha ([2]; Preemergence, 16 g ai/ha) of the same molecule?
Answer: The pest or weed control at 16 g/ha was 85%.

Question: What about the pest or weed control at 250 g/ha [3] of the same molecule?
Answer: The pest or weed control at 250 g/ha was 100%.

Question: What about the pest or weed control at 250 g/ha [4] of the same molecule?
Answer: Its pest or weed control at 250 g/ha is 100%.

Question: And the plant injury at 250 g/ha (rice (Oryza sativa))?
Answer: Its plant injury at 250 g/ha is 50%.

Question: What about the pest or weed control at 250 g/ha [5] of the same molecule?
Answer: The pest or weed control at 250 g/ha was 50%.

Question: And the pest or weed control at 31 g/ha ([6]; 31 g ai/ha)?
Answer: The pest or weed control at 31 g/ha was 0%.

Question: And the pest or weed control at 125 g/ha ([6]; 125 g ai/ha)?
Answer: The pest or weed control at 125 g/ha was 40%.

Question: And the pest or weed control at 31 g/ha ([7]; 31 g ai/ha)?
Answer: Its pest or weed control at 31 g/ha is 100%.

Question: What about the pest or weed control at 125 g/ha ([7]; 125 g ai/ha) of the same molecule?
Answer: The pest or weed control at 125 g/ha was 100%.

Question: What about the pest or weed control at 31 g/ha ([8]; 31 g ai/ha) of the same molecule?
Answer: The pest or weed control at 31 g/ha was 10%.

Question: And the pest or weed control at 125 g/ha ([8]; 125 g ai/ha)?
Answer: Its pest or weed control at 125 g/ha is 90%.

Question: What about the pest or weed control at 31 g/ha ([9]; 31 g ai/ha) of the same molecule?
Answer: Its pest or weed control at 31 g/ha is 80%.

Question: What about the pest or weed control at 125 g/ha ([9]; 125 g ai/ha) of the same molecule?
Answer: Its pest or weed control at 125 g/ha is 100%.

Question: What about the pest or weed control at 31 g/ha ([10]; 31 g ai/ha) of the same molecule?
Answer: Its pest or weed control at 31 g/ha is 100%.

Question: What about the pest or weed control at 125 g/ha ([10]; 125 g ai/ha) of the same molecule?
Answer: The pest or weed control at 125 g/ha was 100%.

Question: What about the pest or weed control at 31 g/ha (kochia (Kochia scoparia) [11]; 31 g ai/ha) of the same molecule?
Answer: Its pest or weed control at 31 g/ha is 90%.

Question: What about the pest or weed control at 125 g/ha (kochia (Kochia scoparia) [11]; 125 g ai/ha) of the same molecule?
Answer: Its pest or weed control at 125 g/ha is 100%.

Question: And the plant injury at 31 g/ha ([12]; 31 g ai/ha)?
Answer: Its plant injury at 31 g/ha is 10%.

Question: What about the plant injury at 125 g/ha ([12]; 125 g ai/ha) of the same molecule?
Answer: The plant injury at 125 g/ha was 90%.

Question: And the Corn plant response rating (crop injury, 0 = no effect, 100 = complete kill) at 31 g/ha (corn (Zea mays); 31 g ai/ha)?
Answer: Its Corn plant response rating (crop injury, 0 = no effect, 100 = complete kill) at 31 g/ha is 60%.

Question: What about the Corn plant response rating (crop injury, 0 = no effect, 100 = complete kill) at 125 g/ha (corn (Zea mays); 125 g ai/ha) of the same molecule?
Answer: Its Corn plant response rating (crop injury, 0 = no effect, 100 = complete kill) at 125 g/ha is 100%.

Question: What about the pest or weed control at 31 g/ha ([13]; 31 g ai/ha) of the same molecule?
Answer: Its pest or weed control at 31 g/ha is 40%.

Question: What about the pest or weed control at 125 g/ha ([13]; 125 g ai/ha) of the same molecule?
Answer: Its pest or weed control at 125 g/ha is 60%.

Question: And the pest or weed control at 31 g/ha ([14]; 31 g ai/ha)?
Answer: The pest or weed control at 31 g/ha was 100%.

Question: What about the pest or weed control at 125 g/ha ([14]; 125 g ai/ha) of the same molecule?
Answer: The pest or weed control at 125 g/ha was 100%.

Question: And the pest or weed control at 31 g/ha ([15]; 31 g ai/ha)?
Answer: The pest or weed control at 31 g/ha was 40%.

Question: What about the pest or weed control at 125 g/ha ([15]; 125 g ai/ha) of the same molecule?
Answer: The pest or weed control at 125 g/ha was 90%.

Question: What about the pest or weed control at 31 g/ha ([16]; 31 g ai/ha) of the same molecule?
Answer: Its pest or weed control at 31 g/ha is 90%.

Question: What about the pest or weed control at 125 g/ha ([16]; 125 g ai/ha) of the same molecule?
Answer: Its pest or weed control at 125 g/ha is 90%.

Question: And the pest or weed control at 31 g/ha ([17]; 31 g ai/ha)?
Answer: The pest or weed control at 31 g/ha was 100%.

Question: And the pest or weed control at 125 g/ha ([17]; 125 g ai/ha)?
Answer: Its pest or weed control at 125 g/ha is 100%.

Question: What about the pest or weed control at 31 g/ha ([18]; 31 g ai/ha) of the same molecule?
Answer: Its pest or weed control at 31 g/ha is 100%.

Question: What about the pest or weed control at 125 g/ha ([18]; 125 g ai/ha) of the same molecule?
Answer: Its pest or weed control at 125 g/ha is 100%.

Question: What about the pest or weed control at 31 g/ha ([19]; 31 g ai/ha) of the same molecule?
Answer: Its pest or weed control at 31 g/ha is 80%.

Question: What about the pest or weed control at 125 g/ha ([19]; 125 g ai/ha) of the same molecule?
Answer: The pest or weed control at 125 g/ha was 100%.

Question: What about the pest or weed control at 31 g/ha (kochia (Kochia scoparia) [20]; 31 g ai/ha) of the same molecule?
Answer: The pest or weed control at 31 g/ha was 100%.

Question: And the pest or weed control at 125 g/ha (kochia (Kochia scoparia) [20]; 125 g ai/ha)?
Answer: The pest or weed control at 125 g/ha was 100%.
